Experimental data as given in patent US20220054411A1, “MULTIPLE CONCENTRATE FORMULATION FOR MEDICAL PRODUCTS” (priority 2020, published 2022).
Converted amounts (≈) assume the structure as drawn.

Columns and labels:
Format in all cases: cell-based
Escherichia coli = assay: Minimal Inhibitory Concentration against Escherichia coli
Staphylococcus Aureus = assay: Minimal Inhibitory Concentration against Staphylococcus Aureus
[1] = test system: Staphylococcus epidermidis; assay: Minimal Inhibitory Concentration against Staphylococcus epidermidis; settings: at 24 hours
Pseudomonas Aeruginosa = assay: Minimal Inhibitory Concentration against Pseudomonas Aeruginosa

| MIC (Escherichia coli; pH 5, at 24 hours) [µg/mL] | MIC (Escherichia coli; pH 6, at 24 hours) [µg/mL] | MIC (Escherichia coli; pH 7, at 24 hours) [µg/mL] | MIC (Staphylococcus Aureus; pH 5, at 24 hours) [µg/mL] | MIC (Staphylococcus Aureus; pH 6, at 24 hours) [µg/mL] | MIC (Staphylococcus Aureus; pH 7, at 24 hours) [µg/mL] | Structure (SMILES) | Minimal Inhibitory Concentration (Escherichia coli; pH 5, at 24 hours) [micrograms per milliliter] | Minimal Inhibitory Concentration (Escherichia coli; pH 6, at 24 hours) | Minimal Inhibitory Concentration (Escherichia coli; pH 7, at 24 hours) | Minimal Inhibitory Concentration (Staphylococcus Aureus; pH 5, at 24 hours) [micrograms per milliliter] | Minimal Inhibitory Concentration (Staphylococcus Aureus; pH 6, at 24 hours) [micrograms per milliliter] | Minimal Inhibitory Concentration (Staphylococcus Aureus; pH 7, at 24 hours) [micrograms per milliliter] | Minimal Inhibitory Concentration [1] [micrograms per milliliter] | Minimal Inhibitory Concentration (Pseudomonas Aeruginosa) [micrograms per milliliter] |
| --- | --- | --- | --- | --- | --- | --- | --- | --- | --- | --- | --- | --- | --- | --- |
|  |  |  |  |  |  | CCCCCCCCCCCC(=O)OCC(O)CO (centres unmarked) [Monolaurin, monolaurin] | 500 | 2,000 micrograms per milliliter | >4,000 micrograms per milliliter | 16 | 64 | 128 | 1953 | 62.5 |
| 312 (≈ 2790 µM) | 1250 (≈ 11100 µM) | > 5000 | 156 (≈ 1390 µM) | 312 (≈ 2790 µM) | 1250 (≈ 11100 µM) | C/C=C/C=C/C(=O)O [Sorbic Acid, sorbic acid] |  |  |  |  |  |  |  |  |
